# Reference: patent US10682353B2, “Varlitinib for use in the treatment of resistant or refractory cancer” (ASLAN Pharmaceuticals PTE LTD, priority 2015, dated 2020)
# Tests used:
# Format in all cases: in vivo, human
# [1] = test system: stage IV, extra-hepatic cholangiocarcinoma; experiment: Example 2: Varlitinib 400 mg bi-daily combination therapy followed by monotherapy in a patient
# Protocol: A person, stage IV, extra-hepatic cholangiocarcinoma, prior treatment: • Whipple • Radiotherapy • Gemzar/cisplatin for 6 months For the first 6 cycles, the patient received Varlitinib 400 mg BID continuously with cisplatin (80 mg/m^2 every 3 weeks) and capecitabine (1000 mg/m2 BID, 2 weeks on, 1 week off). […] In summary, the patient received varlitinib with chemo for 6 cycles and varlitinib monotherapy for another 4 cycles (3 weeks per cycle).
# [2] = test system: stage IV cholangiocarcinoma EGFR positive (3+) cancer; experiment: Example 1: Varlitinib 400 mg bi-daily monotherapy in a patient; conditions: after treatment cycle 6, Varlitinib 400 mg bi-daily monotherapy
# [3] = test system: intrahepatic cholangiocarcinoma, stage IV; experiment: Example 3: Varlitinib 400 mg bi-daily orally and FOLFOX in a patient (ASLAN001-002SG study)
# Text: They received left hemihepatectomy followed by 6 cycles of adjuvant gemcitabine and cisplatin.
smiles,measurement,setting,value
"C[C@@H]1COC(Nc2ccc3ncnc(Nc4ccc(OCc5nccs5)c(Cl)c4)c3c2)=N1 [Varlitinib, (R)—N4-[3-Chloro-4-(thiazol-2-ylmethoxy)-phenyl]-N6-(4-methyl-4,5,-dihydro-oxazol-2-yl)-quinazoline-4,6-diamine]",reduction in tumour size (tumor scan),"[1]; end of cycle 8, varlitinib monotherapy after 6 cycles of combination with cisplatin and capecitabine",87%
same,image scan outcome based on RECIST,"[1]; end of cycle 10, on varlitinib monotherapy, criterion >20% increase against nadir",disease progression
same,tumour marker CA 19-9,[2]; fell from ~900 U/ml,~250 U/ml
same,liver tumours decreased in size,[2]; one patient progressive after gemcitabine and cisplatin/5-FU,up to 23%
same,reduction in tumor size as the best response from baseline,"[3]; Varlitinib 400 mg BID with mFOLFOX6 for 9 cycles, then 9 cycles varlitinib monotherapy (2 weeks per cycle), one patient",53%
same,latest tumor assessment (response),"[3]; after cycle 18, 9 cycles Varlitinib 400 mg BID and mFOLFOX6, then 9 cycles varlitinib monotherapy",partial response
